Reference: US9902736B2, “1-oxo/acylation-14-acylated oridonin derivative, preparation method therefor and application thereof” (HANGZHOU BENSHENG PHARMACEUTICAL CO., LTD., priority 2012, dated 2018)
In brackets after ≈: the same amount, converted by molar mass.

Tests used:
CNE = experiment: Solid tumor cell growth inhibition, MTT, 72 h; type: cell-based, human; conditions: Homo sapiens, CNE; 72 h, MTT
Summary of the method: (§1)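 Viability was read by MTT after 72 hours' exposure to varied concentrations of oridonin derivatives at 37° C, 5% CO2. Beforehand, 6000 cells per well were preincubated 24 hours in DMEM high glucose containing 10% fetal bovine serum.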

Hela = experiment: Solid tumor cell growth inhibition, MTT, 72 h; type: cell-based, human; conditions: Homo sapiens, HeLa; 72 h, MTT
Summary of the method: as §1

MGC-803 = experiment: Solid tumor cell growth inhibition, MTT, 72 h; type: cell-based, human; conditions: Homo sapiens, MGC-803; 72 h, MTT
Summary of the method: as §1

Hep-2 = experiment: Solid tumor cell growth inhibition, MTT, 72 h; type: cell-based, human; conditions: Homo sapiens, HEp-2; 72 h, MTT
Summary of the method: as §1

PANC-1 = experiment: Solid tumor cell growth inhibition, MTT, 72 h; type: cell-based; conditions: Homo sapiens
Summary of the method: as §1

U87-MG = experiment: Solid tumor cell growth inhibition, MTT, 72 h; type: cell-based; conditions: Homo sapiens, U-87 MG
Summary of the method: as §1

Hep G2 = experiment: Solid tumor cell growth inhibition, MTT, 72 h; type: cell-based; conditions: Homo sapiens, HepG2
Summary of the method: as §1

SK-OV-3 = experiment: Solid tumor cell growth inhibition, MTT, 72 h; type: cell-based; conditions: Homo sapiens, SK-OV-3, 72 h, MTT; for IC50: read-out: IC50 SK-OV-3; for IC90: read-out: IC90 SK-OV-3
Summary of the method: as §1

CaEs-17 = experiment: Solid tumor cell growth inhibition, MTT, 72 h; type: cell-based; conditions: Homo sapiens, CaEs17
Summary of the method: as §1

MG-63 = experiment: Solid tumor cell growth inhibition, MTT, 72 h; type: cell-based; conditions: Homo sapiens
Summary of the method: as §1

Becap-37 = experiment: Solid tumor cell growth inhibition, MTT, 72 h; type: cell-based; conditions: Homo sapiens
Summary of the method: as §1

PC-3 = experiment: Solid tumor cell growth inhibition, MTT, 72 h; type: cell-based; conditions: Homo sapiens
Summary of the method: as §1

RKO = experiment: Solid tumor cell growth inhibition, MTT, 72 h; type: cell-based; conditions: Homo sapiens
Summary of the method: as §1

A549 = experiment: Solid tumor cell growth inhibition, MTT, 72 h; type: cell-based; conditions: Homo sapiens
Summary of the method: as §1

Kasumi-1 = experiment: Leukemia cell growth inhibition, MTT, 72 h; type: cell-based; conditions: Homo sapiens
Summary of the method: (§2)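 Growth inhibition was scored by MTT after 72 h exposure to a concentration range of oridonin derivatives (37° C, 5% CO2). Compound went on the day after seeding 6000 cells per well of K562/ADR, H9, Jurkat or Kasumi-1.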

K562/ADR = experiment: Leukemia cell growth inhibition, MTT, 72 h; type: cell-based; conditions: Homo sapiens
Summary of the method: as §2

NB4 = experiment: Leukemia cell growth inhibition, MTT, 72 h; type: cell-based, human; conditions: for IC50 / IC90: Homo sapiens, NB-4, 72 h, MTT
Summary of the method: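 Viability determined by MTT following a 72-hour, 37° C, 5% CO2 incubation with test compounds at different concentrations, added the day after seeding 6000 cells per well.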

Jurkat = experiment: Leukemia cell growth inhibition, MTT, 72 h; type: cell-based, human; conditions: Homo sapiens, Jurkat; 72 h, MTT
Summary of the method: as §2

H9 = experiment: Leukemia cell growth inhibition, MTT, 72 h; type: cell-based, human; conditions: for IC50 / IC90: Homo sapiens, H9, 72 h, MTT
Summary of the method: as §2

RPMI 8226 = experiment: Multiple myeloma cell growth inhibition, MTT, 72 h; type: cell-based; conditions: Homo sapiens
Summary of the method: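 Growth inhibition by MTT after 72 h drug exposure (37 °C, 5% CO2) over a concentration range of oridonin derivatives. RPMI 8226 cells plated at 6000 per well and dosed the following day.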

C=C1C(=O)[C@]23[C@H](OC(=O)c4ccc(Cl)cc4)[C@H]1CC[C@H]2[C@@]12CO[C@@]3(O)[C@@H](O)[C@@H]1C(C)(C)CC[C@@H]2OC(C)=O [BS-OR-093]
IC50 (CNE): 1.31 mg/L (≈ 2.4 µM)
IC90 (CNE): 5.02 mg/L (≈ 9.21 µM)
IC50 (Hela): 1.02 mg/L (≈ 1.87 µM)
IC90 (Hela): 3.45 mg/L (≈ 6.33 µM)
IC50 (MGC-803): 0.79 mg/L (≈ 1.45 µM)
IC90 (MGC-803): 6.73 mg/L (≈ 12.3 µM)
IC50 (Hep-2): 1.42 mg/L (≈ 2.61 µM)
IC90 (Hep-2): 6.91 mg/L (≈ 12.7 µM)
IC50 (PANC-1): 1.69 mg/L (≈ 3.1 µM)
IC90 (PANC-1): 9.36 mg/L (≈ 17.2 µM)
IC50 (U87-MG): 0.56 mg/L (≈ 1.03 µM)
IC90 (U87-MG): 1.89 mg/L (≈ 3.47 µM)
IC50 (Hep G2): 0.96 mg/L (≈ 1.76 µM)
IC90 (Hep G2): 7.13 mg/L (≈ 13.1 µM)
IC50 (SK-OV-3): 1.6 mg/L (≈ 2.94 µM)
IC90 (SK-OV-3): 5.12 mg/L (≈ 9.39 µM)
IC50 (CaEs-17): 0.86 mg/L (≈ 1.58 µM)
IC90 (CaEs-17): 5.21 mg/L (≈ 9.56 µM)
IC50 (MG-63): 0.45 mg/L (≈ 0.826 µM)
IC90 (MG-63): 2.31 mg/L (≈ 4.24 µM)
IC50 (Becap-37): 1.1 mg/L (≈ 2.02 µM)
IC90 (Becap-37): 1.99 mg/L (≈ 3.65 µM)
IC50 (PC-3): 1.6 mg/L (≈ 2.94 µM)
IC90 (PC-3): 5.12 mg/L (≈ 9.39 µM)
IC50 (RKO): 0.41 mg/L (≈ 0.752 µM)
IC90 (RKO): 0.92 mg/L (≈ 1.69 µM)
IC50 (A549): 1.78 mg/L (≈ 3.27 µM)
IC90 (A549): 6.68 mg/L (≈ 12.3 µM)
IC50 (Kasumi-1): 0.41 mg/L (≈ 0.752 µM)
IC90 (Kasumi-1): 1.31 mg/L (≈ 2.4 µM)
IC50 (K562/ADR): 0.37 mg/L (≈ 0.679 µM)
IC90 (K562/ADR): 1.57 mg/L (≈ 2.88 µM)
IC50 (NB4): 0.05 mg/L (≈ 0.0917 µM)
IC90 (NB4): 0.47 mg/L (≈ 0.862 µM)
anti-NB4 cell line activity increased (NB4; as compared with oridonin): 15 fold
IC50 (Jurkat): 0.44 mg/L (≈ 0.807 µM)
IC90 (Jurkat): 3.03 mg/L (≈ 5.56 µM)
IC50 (H9): 0.06 mg/L (≈ 0.11 µM)
IC90 (H9): 0.33 mg/L (≈ 0.605 µM)
anti-H9 cell line activity increased (H9; as compared with oridonin): 22 fold
IC50 (RPMI 8226): 0.2 mg/L (≈ 0.367 µM)
IC90 (RPMI 8226): 1.55 mg/L (≈ 2.84 µM)

C=C1C(=O)[C@]23[C@H](OC(=O)/C=C/c4ccccc4)[C@H]1CC[C@H]2[C@@]12CO[C@@]3(O)[C@@H](O)[C@@H]1C(C)(C)CC[C@@H]2OC(C)=O [BS-OR-094]
IC50 (CNE): 1.32 mg/L (≈ 2.46 µM)
IC90 (CNE): 5.04 mg/L (≈ 9.39 µM)
IC50 (Hela): 1.54 mg/L (≈ 2.87 µM)
IC90 (Hela): 4.45 mg/L (≈ 8.29 µM)
IC50 (MGC-803): 1.39 mg/L (≈ 2.59 µM)
IC90 (MGC-803): 12.1 mg/L (≈ 22.5 µM)
IC50 (Hep-2): 1.68 mg/L (≈ 3.13 µM)
IC90 (Hep-2): 7.46 mg/L (≈ 13.9 µM)
IC50 (PANC-1): 1.82 mg/L (≈ 3.39 µM)
IC90 (PANC-1): 9.91 mg/L (≈ 18.5 µM)
IC50 (U87-MG): 0.6 mg/L (≈ 1.12 µM)
IC90 (U87-MG): 1.86 mg/L (≈ 3.47 µM)
IC50 (Hep G2): 1.42 mg/L (≈ 2.65 µM)
IC90 (Hep G2): 7.47 mg/L (≈ 13.9 µM)
IC50 (SK-OV-3): 1.66 mg/L (≈ 3.09 µM)
IC90 (SK-OV-3): 4.52 mg/L (≈ 8.42 µM)
IC50 (CaEs-17): 0.94 mg/L (≈ 1.75 µM)
IC90 (CaEs-17): 6.26 mg/L (≈ 11.7 µM)
IC50 (MG-63): 0.47 mg/L (≈ 0.876 µM)
IC90 (MG-63): 1 mg/L (≈ 1.86 µM)
IC50 (Becap-37): 1.15 mg/L (≈ 2.14 µM)
IC90 (Becap-37): 3.31 mg/L (≈ 6.17 µM)
IC50 (PC-3): 1.66 mg/L (≈ 3.09 µM)
IC90 (PC-3): 4.52 mg/L (≈ 8.42 µM)
IC50 (RKO): 0.38 mg/L (≈ 0.708 µM)
IC90 (RKO): 0.75 mg/L (≈ 1.4 µM)
IC50 (A549): 2.87 mg/L (≈ 5.35 µM)
IC90 (A549): 9.95 mg/L (≈ 18.5 µM)
IC50 (Kasumi-1): 0.72 mg/L (≈ 1.34 µM)
IC90 (Kasumi-1): 1.72 mg/L (≈ 3.21 µM)
IC50 (K562/ADR): 0.7 mg/L (≈ 1.3 µM)
IC90 (K562/ADR): 2.17 mg/L (≈ 4.04 µM)
IC50 (NB4): 0.1 mg/L (≈ 0.186 µM)
IC90 (NB4): 0.49 mg/L (≈ 0.913 µM)
IC50 (Jurkat): 0.65 mg/L (≈ 1.21 µM)
IC90 (Jurkat): 2.68 mg/L (≈ 4.99 µM)
IC50 (H9): 0.19 mg/L (≈ 0.354 µM)
IC90 (H9): 0.49 mg/L (≈ 0.913 µM)
IC50 (RPMI 8226): 0.49 mg/L (≈ 0.913 µM)
IC90 (RPMI 8226): 1.75 mg/L (≈ 3.26 µM)
